Assay: Differential scanning calorimetry (DSC) of drug/compound mixtures (solid solution screening)
Type: physicochemical
Experimental: For the purpose of screening adequate solid dispersions, several exemplary mixtures were prepared, each composed of paclitaxel and a compound of different kind, and these mixtures underwent differential scanning calorimetry (DSC) using a differential scanning calorimeter.
The paclitaxel is a product of SIGMA Corp.
The thus prepared solution was completely freed of ethanol or acetone by vacuum drying. The resulting dry product was placed in an aluminum pan and thereafter underwent DSC in a nitrogen atmosphere at a heating rate of 10° C./min.
For the purpose of observing the properties of the solid solution of HSPC and a drug other than paclitaxel, there were prepared a mixture of HSPC and sirolimus and a mixture of HSPC and simvastatin, as shown in Table 5 below.

Compound: CC(=O)O[C@H]1C(=O)[C@@]2(C)[C@H]([C@H](OC(=O)c3ccccc3)[C@]3(O)C[C@H](OC(=O)[C@H](O)[C@@H](NC(=O)c4ccccc4)c4ccccc4)C(C)=C1C3(C)C)[C@]1(OC(C)=O)CO[C@@H]1C[C@@H]2O [Comparative Example 4, paclitaxel]
- endothermic peak due to fusion of paclitaxel (DSC thermogram): gave an endothermic peak
- Peak due to fusion of paclitaxel (DSC, nitrogen atmosphere, 10° C./min, 10 mg compound + 10 mg paclitaxel, dried from ethanol or acetone): Yes

— patent US20120082706A1, “MEDICAL DEVICE FOR DRUG DELIVERY” (TERUMO KABUSHIKI KAISHA, priority 2009, published 2012)
